Results: the METLIN SMRT retention time set (Domingo-Almenara et al. 2019)

Test: gradient 5% acetonitrile 3 min, to 50% in 2 min, to 85% in 15 min, held 3 min, 100 µL/min
Conditions: column: Zorbax Extend-C18 2.1 x 50 mm; eluents: water / acetonitrile, 0.1% formic acid
How it was run: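 Retention times of pure standards were taken from adduct peaks that were selected by computer and manually inspected. Over 3 months, mixtures of ~100 molecules were run by HPLC–quadrupole time-of-flight mass spectrometry in positive and negative ionization mode. The Zorbax Extend-C18 column (2.1 × 50 mm, 1.8 μm) ran at 100 μL/min in water and acetonitrile, each containing 0.1% formic acid, with 40 μL dead volume and 900 μL dwell volume.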

Row | Compound | RP-LC retention time
1 | O=C(NC1CCCCC1)N1CCN(c2ccc3nnc(C4CC4)n3n2)CC1 | 645 s
2 | O=C(NC1CCCCC1)c1ccc2c(c1)NC(=O)C1CCCCN21 (stereo unspecified) | 807 s
3 | CCc1ccc(N2C(=O)CN(Cc3ccccc3Cl)[C@H]3CS(=O)(=O)C[C@H]32)cc1 | 910 s
4 | CN(CC(=O)Nc1ccc2c(c1)OCO2)c1nc2c(F)cccc2s1 | 828 s
5 | CCOC(=O)C1=C(CN(CC)Cc2ccccc2)NC(=O)NC1c1cccs1 (stereo unspecified) | 674 s
6 | CCCn1cc(C(=O)NCC(C)C)c(S(=O)(=O)N2CCN(c3ccccc3OCC)CC2)n1 | 1180 s
7 | CCC(=O)N1CCc2cn(C)c3cccc(c23)C1 | 768 s
8 | CC(C)(C)c1cc(C(=O)Nc2ccccc2)nc2ccnn12 | 1250 s
9 | Cc1cc(C)cc(NC(=O)NCC2CCOCC2)c1 | 752 s
10 | COc1ccc2c(c1)C1(CCN(C(=O)CCc3ccccc3)C1)C(=O)N2 (stereo unspecified) | 728 s
11 | CCOc1ccc(-c2nc(-c3ccc4c(c3)oc(=O)n4C(C)C)no2)cc1OCC | 1260 s
12 | Cc1cc(C)n(-c2cc(N3CCCC(C(=O)Nc4nccs4)C3)ncn2)n1 (stereo unspecified) | 749 s
13 | Cc1ccc(C2c3[nH]c4ccccc4c3CCN2C(=O)c2cccs2)cc1 (stereo unspecified) | 1200 s
14 | CC(C(=O)NCCN1CCCCC1)n1c(=O)c(C(F)(F)F)nc2ccccc21 (stereo unspecified) | 601 s
15 | CCc1cc2nn(CC#N)c(=O)n2c(C(C)C)n1 | 871 s
16 | COc1nn(C)cc1C(=O)Nc1ccc(Cl)c(Cl)c1 | 864 s
17 | CCn1nnc(NCc2ccc(-c3ccc(Br)cc3Cl)o2)n1 | 1120 s
18 | CC1=C(c2ccc(C)cc2)S(=O)(=O)N=C1N1CCCN(C(=O)C2CCC2)CC1 | 818 s
19 | CCOC(=O)C1CCCN(C(=O)c2cccc3c2SCCC3=O)C1 (stereo unspecified) | 780 s
20 | CC(C)NC(=O)c1sc(-n2cccc2)nc1C(C)C | 1060 s
21 | O=C(Nc1cccc(C(F)(F)F)c1)N1C[C@H]2C[C@H](C1)[C@H]1CCCC(=O)N1C2 | 731 s

Row | Compound | RP-LC retention time
22 | Cn1cc(C2=CCN(S(=O)(=O)c3cccc(Cl)c3)CC2)c2cccnc21 | 1060 s
23 | CSc1nsc(SCC(=O)Nc2nc(-c3ccccc3)cs2)n1 | 1070 s
24 | O=C(NCC1CC1)C1CCN(c2nc3ccsc3c(=O)n2Cc2ccc(F)cc2)CC1 | 826 s
25 | Cc1oc(C2CCN(S(=O)(=O)c3cc(F)ccc3F)CC2)nc1C(=O)N1CCCC1 | 926 s
26 | CCCn1cc(CCNS(=O)(=O)c2ccc3c(c2)CCCC3)c2cccnc21 | 1030 s
27 | Cc1noc(C)c1-c1ccc(S(=O)(=O)Nc2ccc(C#N)cc2)cc1 | 874 s
28 | COc1ccc(OC)c(S(=O)(=O)Cc2nc(-c3ccccc3C)no2)c1 | 990 s
29 | COc1cc([C@H]2c3cc4c(cc3[C@@H](O)[C@H](CO)[C@H]2C(=O)N2CCCc3ccccc32)OCO4)cc(OC)c1OC | 734 s
30 | c1ccc(-c2cn3c(n2)SCC3)cc1 | 549 s
31 | O=C(Cn1nc(-c2cccs2)ccc1=O)Nc1nc2c(s1)CCCC2 | 741 s
32 | Cc1ccc(-c2noc(-c3cccc(S(=O)(=O)N(C)Cc4ccco4)c3)n2)cc1 | 1260 s
33 | COc1ccc(C2CC(=O)c3cnc(Nc4nc(C)c5ccc(C)cc5n4)nc3C2)cc1 (stereo unspecified) | 593 s
34 | Cc1ccc(-c2noc(C3CCCN3S(=O)(=O)c3ccc(C)c(Cl)c3)n2)cc1 (stereo unspecified) | 1290 s
35 | CC(C)CCC(=O)N1CCN(c2nc(CN3CCC(C)CC3)cs2)CC1 | 671 s
36 | CCCN(C(=O)C1CCC(C)CC1)c1nc(-c2ccccc2)cs1 (stereo unspecified) | 748 s
37 | CCOC(=O)CCNC(=O)C1CCCN(c2nccnc2Oc2ccc(C)cc2)C1 (stereo unspecified) | 884 s
38 | Cc1ccc(S(=O)(=O)N2CCCC(CCC(=O)NC3CCS(=O)(=O)C3)C2)cc1 (stereo unspecified) | 765 s
39 | COc1cc(Cl)c(NC(=O)Cn2cc(-c3nnc(C)o3)c3ccccc32)c(OC)c1 | 836 s
40 | CCN(CCNC(=O)C12CCCC=C1N(Cc1ccccc1)C(=O)CC2)Cc1ccccc1 (stereo unspecified) | 603 s
41 | CSc1ncccc1C(=O)N1CCCC1c1nc(-c2ccc(F)cc2F)no1 (stereo unspecified) | 907 s

The remaining lines, values ahead:

Row | RP-LC retention time | Compound
42 | 759 s | CC(C)NC(=O)c1ccc(Cn2c(SCC#N)nc3cc4c(cc3c2=O)OCO4)cc1
43 | 786 s | CCn1ccc(C(=O)Nc2ccc(N3CCN(c4ccccc4)C3=O)nc2)n1
44 | 610 s | CCN1CCN(c2cc(C(=O)O)c3cc(NC(=O)c4ccc(Br)cc4)ccc3n2)CC1
45 | 633 s | CCn1cnc(S(=O)(=O)N2CCCC(C(=O)Nc3ccc(-c4nc5ccccc5[nH]4)cc3)C2)c1 (stereo unspecified)
46 | 717 s | COCCNC(=O)c1ccc2c(c1)N(Cc1ccc(F)cc1)C(=O)CO2
47 | 618 s | CC(=O)Nc1ccc(CCc2nc3ccc(C(=O)NCc4ccc5c(c4)OCO5)cc3[nH]2)cc1
48 | 600 s | O=C(c1ccccc1Cl)N1CCN(c2nc(CN3CCOCC3)cs2)CC1
49 | 652 s | Cc1ccn2cc(-c3ccc(NC(=O)c4ccccc4Cl)cc3)nc2n1
50 | 590 s | Cc1ccc2c(Nc3ccc(S(N)(=O)=O)cc3)c(C(=O)N3CCCCC3C)cnc2n1 (stereo unspecified)
51 | 694 s | O=C(Nc1ccc2c(c1)OCO2)C1CC(=O)N(c2n[nH]c3cccc(F)c23)C1 (stereo unspecified)
52 | 998 s | CCc1nc2ccccc2c(=O)n1Cc1noc(-c2ccc(F)cc2)n1
53 | 681 s | COc1ccc(NC(=O)Cn2c(=O)c(CCC(=O)NC3CCCC3)nc3ccccc32)cc1Cl
54 | 933 s | COc1ccc(-c2csc(NC(=O)Cn3c(=O)oc4ccccc43)n2)cc1
55 | 690 s | CCCNC(=O)C1CCN(c2ccc(SCC(=O)Nc3cc(Cl)ccc3C)nn2)CC1
56 | 894 s | Cc1cc(C(=O)Nc2nnc(SCC(=O)N3CCCc4ccccc43)s2)c(C)o1
57 | 702 s | CCNc1nc(C)cc(N2CCN(C(=O)Nc3ccc(CC)cc3)CC2)n1
58 | 855 s | CCC(=O)N1CCc2cc(-c3ccc(C(=O)N4CCN(c5ncccn5)CC4)cc3)ccc21
59 | 872 s | COc1ccc(-c2cnn(CC(=O)Nc3cc(F)cc(F)c3)c(=O)n2)cc1
60 | 872 s | CCCn1ccc2sc(C)c(C(=O)N3CCN(c4ccc(F)cc4)CC3)c2c1=O
61 | 846 s | O=C(Cn1nc(N2CCOCC2)c2ccccc2c1=O)Nc1cccc(Cl)c1
62 | 892 s | CC1(C)COc2ccc(NC(=O)c3cccc(Br)c3)cc2NC1=O
63 | 1060 s | COc1ccc(-c2csc(C)n2)cc1S(=O)(=O)N1CCN(c2ccccc2)CC1
64 | 701 s | O=C(Nc1ccc(N2CCCN(C(=O)C3CC3)CC2)cc1)c1cncc(Br)c1
65 | 884 s | O=C1CCCC1C(=O)Nc1ccc2ccccc2c1 (stereo unspecified)
66 | 604 s | Cc1nc2ncc(-c3ccnc(N4CCN(Cc5ccccc5)CC4)n3)c(C)n2n1
